According to ChEMBL document CHEMBL1158707, “Botryane metabolites from the fungus Geniculosporium sp. isolated from the marine red alga Polysiphonia” (2005):

Key:
Format in all cases: functional
[Chlorella] fusca [1] = Antimicrobial activity against Chlorella fusca at 1 mg/ml; conditions: Scenedesmus fuscus; read-out: IZ
[Chlorella] fusca [2] = Antimicrobial activity against Chlorella fusca at 5 mg/ml; conditions: Scenedesmus fuscus; read-out: IZ
Priestia megaterium [3] = assay: Antimicrobial activity against Bacillus megaterium 1mg/ml
Priestia megaterium [4] = assay: Antimicrobial activity against Bacillus megaterium 5 mg/ml
Microbotryum violaceum [5] = assay: Antimicrobial activity against Microbotryum violaceum 1 mg/ml
Microbotryum violaceum [6] = assay: Antimicrobial activity against Microbotryum violaceum 5 mg/ml
[Chlorella] fusca [7] = Antimicrobial activity against Chlorella fusca at 2 mg/ml; conditions: Scenedesmus fuscus; read-out: IZ
[Chlorella] fusca [8] = Antimicrobial activity against Chlorella fusca at 8 mg/ml; conditions: Scenedesmus fuscus; read-out: IZ

SMILES: Cc1ccc2c3c1[C@@H](O)OC[C@@]3(C)[C@H](O)C2(C)C
- zone of inhibition at 1000 µg/mL ([Chlorella] fusca [1]): 0 mm
- zone of inhibition at 5000 µg/mL ([Chlorella] fusca [2]): 12 mm
- inhibition zone (IZ) (Priestia megaterium [3]): 0 mm
- inhibition zone (IZ) (Priestia megaterium [4]): 6 mm
- inhibition zone (IZ) (Microbotryum violaceum [5]): 0 mm
- inhibition zone (IZ) (Microbotryum violaceum [6]): 6 mm

SMILES: Cc1ccc2c3c1COC[C@@]3(C)[C@H](O)C2(C)C
- zone of inhibition at 2000 µg/mL ([Chlorella] fusca [7]): 5 mm
- zone of inhibition at 8000 µg/mL ([Chlorella] fusca [8]): 5 mm

SMILES: CO[C@H]1OC[C@@]2(C)[C@H](OC(C)=O)C(C)(C)[C@@H]3[C@@H](OC(C)=O)C[C@@H](C)[C@H]1[C@@]32O
- zone of inhibition at 1000 µg/mL ([Chlorella] fusca [1]): 0 mm
- zone of inhibition at 5000 µg/mL ([Chlorella] fusca [2]): 0 mm
- inhibition zone (IZ) (Priestia megaterium [3]): 0 mm
- inhibition zone (IZ) (Priestia megaterium [4]): 0 mm
- inhibition zone (IZ) (Microbotryum violaceum [5]): 0 mm
- inhibition zone (IZ) (Microbotryum violaceum [6]): 0 mm

SMILES: CO[C@H]1OC[C@]2(C)c3c(ccc(C)c31)C(C)(C)[C@H]2O
- zone of inhibition at 1000 µg/mL ([Chlorella] fusca [1]): 0 mm
- zone of inhibition at 5000 µg/mL ([Chlorella] fusca [2]): 6 mm
- inhibition zone (IZ) (Priestia megaterium [3]): 0 mm
- inhibition zone (IZ) (Priestia megaterium [4]): 6 mm
- inhibition zone (IZ) (Microbotryum violaceum [5]): 0 mm
- inhibition zone (IZ) (Microbotryum violaceum [6]): 8 mm

SMILES: CCO[C@H]1OC[C@]2(C)c3c(ccc(C)c31)C(C)(C)[C@H]2O
- zone of inhibition at 2000 µg/mL ([Chlorella] fusca [7]): 5 mm
- zone of inhibition at 8000 µg/mL ([Chlorella] fusca [8]): 6 mm

SMILES: C[C@@H]1CC=C2[C@@H]3[C@H]1CC(O)[C@@]3(C=O)CC2(C)C (some centres not stated)
- zone of inhibition at 1000 µg/mL ([Chlorella] fusca [1]): 0 mm
- zone of inhibition at 5000 µg/mL ([Chlorella] fusca [2]): 10 mm
- inhibition zone (IZ) (Priestia megaterium [3]): 0 mm
- inhibition zone (IZ) (Priestia megaterium [4]): 0 mm
- inhibition zone (IZ) (Microbotryum violaceum [5]): 0 mm
- inhibition zone (IZ) (Microbotryum violaceum [6]): 0 mm

SMILES: C[C@@H]1C[C@H](O)[C@H]2C(C)(C)C[C@]3(C)CO[C@H](O)[C@@H]1[C@@]23O
- zone of inhibition at 1000 µg/mL ([Chlorella] fusca [1]): 0 mm
- zone of inhibition at 5000 µg/mL ([Chlorella] fusca [2]): 0 mm
- inhibition zone (IZ) (Priestia megaterium [3]): 0 mm
- inhibition zone (IZ) (Priestia megaterium [4]): 0 mm
- inhibition zone (IZ) (Microbotryum violaceum [5]): 0 mm
- inhibition zone (IZ) (Microbotryum violaceum [6]): 0 mm

SMILES: Cc1ccc2c3c1C(=O)OC[C@@]3(C)[C@H](O)C2(C)C
- zone of inhibition at 1000 µg/mL ([Chlorella] fusca [1]): 0 mm
- zone of inhibition at 5000 µg/mL ([Chlorella] fusca [2]): 8 mm
- inhibition zone (IZ) (Priestia megaterium [3]): 0 mm
- inhibition zone (IZ) (Priestia megaterium [4]): 6 mm
- inhibition zone (IZ) (Microbotryum violaceum [5]): 0 mm
- inhibition zone (IZ) (Microbotryum violaceum [6]): 0 mm

SMILES: C[C@@H]1CCC2=C3C1=COC[C@@]3(C)[C@H](O)C2(C)C
- zone of inhibition at 1000 µg/mL ([Chlorella] fusca [1]): 0 mm
- zone of inhibition at 5000 µg/mL ([Chlorella] fusca [2]): 6 mm
- inhibition zone (IZ) (Priestia megaterium [3]): 0 mm
- inhibition zone (IZ) (Priestia megaterium [4]): 0 mm
- inhibition zone (IZ) (Microbotryum violaceum [5]): 0 mm
- inhibition zone (IZ) (Microbotryum violaceum [6]): 5 mm

SMILES: C[C@@H]1C[C@H](O)C2=C3C1=COC[C@@]3(C)[C@H](O)C2(C)C
- zone of inhibition at 1000 µg/mL ([Chlorella] fusca [1]): 0 mm
- zone of inhibition at 5000 µg/mL ([Chlorella] fusca [2]): 7 mm
- inhibition zone (IZ) (Priestia megaterium [3]): 0 mm
- inhibition zone (IZ) (Priestia megaterium [4]): 0 mm
- inhibition zone (IZ) (Microbotryum violaceum [5]): 0 mm
- inhibition zone (IZ) (Microbotryum violaceum [6]): 5 mm

SMILES: CO[C@H]1OC[C@@]2(C)[C@H](O)C(C)(C)[C@@H]3[C@@H](O)C[C@@H](C)[C@H]1[C@@]32O
- zone of inhibition at 1000 µg/mL ([Chlorella] fusca [1]): 0 mm
- zone of inhibition at 5000 µg/mL ([Chlorella] fusca [2]): 0 mm
- inhibition zone (IZ) (Priestia megaterium [3]): 0 mm
- inhibition zone (IZ) (Priestia megaterium [4]): 0 mm
- inhibition zone (IZ) (Microbotryum violaceum [5]): 0 mm
- inhibition zone (IZ) (Microbotryum violaceum [6]): 0 mm

SMILES: C[C@@H]1C[C@H](O)[C@@H]2C(=C1C=O)[C@@](C)(CO)[C@H](O)C2(C)C
- zone of inhibition at 2000 µg/mL ([Chlorella] fusca [7]): 0 mm
- zone of inhibition at 8000 µg/mL ([Chlorella] fusca [8]): 6 mm

SMILES: C[C@@H]1C[C@H](O)[C@@H]2C3=C1[C@@H](O)OC[C@@]3(C)[C@H](O)C2(C)C
- zone of inhibition at 2000 µg/mL ([Chlorella] fusca [7]): 0 mm
- zone of inhibition at 8000 µg/mL ([Chlorella] fusca [8]): 7 mm
